Settings: relative humidity changed from 0 to 95% according to the measurement program (FIG. 4)

Structure (SMILES) | water content change (water uptake)
Cc1cn(-c2cc(NC(=O)c3ccc(C)c(Nc4nccc(-c5cccnc5)n4)c3)cc(C(F)(F)F)c2)cn1.Cl.O.O [Nilotinib monohydrochloride dihydrate form A] | Δm = 4.2%
Cc1cn(-c2cc(NC(=O)c3ccc(C)c(Nc4nccc(-c5cccnc5)n4)c3)cc(C(F)(F)F)c2)cn1.Cl.O [Nilotinib monohydrochloride monohydrate form B] | Δm = 3.2%

From patent publication US9567317B2, “Multicomponent crystalline system comprising nilotinib and selected co-crystal formers” (BASF SE, priority 2012, dated 2017)
